# Test results taken from US20170007561A1, “CONTEMPORANEOUS, HETEROGENEOUSLY-ORIENTED, MULTI-TARGETED THERAPEUTIC MODIFICATION AND/OR MODULATION OF DISEASE BY ADMINISTRATION OF SULFUR-CONTAINING, AMINO ACID-SPECIFIC SMALL MOLECULES” (BioNumerik Pharmaceuticals, Inc., priority 2014, published 2017).
# Several values for one entry are separate records, joined by “and”; a condition that tells them apart may be missing. Equal entries are not always repeated. Entries after “also recorded” stand apart in the source; their conditions may differ. Where two headings read alike, the source gives them in different places.
# Assays:
# [1] = molecular target: human peroxiredoxin 4 (PRX4) (Homo sapiens, UniProt Q13162); experiment: X-ray crystallography and Mass Spectrometry of Prx 4 with Tavocept-derived mesna; conditions: 40 mM Tavocept; MS and X-ray
# [2] = cited from earlier work
# [3] = molecular target: T1, human Trx with rat liver TrxR (Homo sapiens, UniProt P10599); experiment: TrxR/Trx insulin disulfide reduction assay (NADPH oxidation 340 nm, insulin B chain precipitation 650 nm); type: biochemical; conditions: Tavocept 0-10 mM, insulin 86 μM
# T1 sequence (P10599 1-105): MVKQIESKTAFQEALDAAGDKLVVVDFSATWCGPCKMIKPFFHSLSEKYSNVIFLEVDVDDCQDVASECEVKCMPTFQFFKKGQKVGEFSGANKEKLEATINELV
# [4] = molecular target: T2, Anaplastic Lymphoma Kinase (ALK) (Homo sapiens, UniProt Q9UM73); experiment: ALK kinase activity (summary Table 27); type: biochemical
# T2 construct: illustrates the kinase domain of ALK (residues 1058-1623) which was used in these experiments; 6xHis (N); purchased Millipore lot 32944U-H (catalogue number not given); host or cells: baculovirus / Sf21
# Peroxiredoxin (Prx) = molecular target: T3, Peroxiredoxin (Prx) (Homo sapiens, UniProt Q06830); experiment: Peroxiredoxin activity (summary Table 27); type: biochemical
# T3 construct: purchased SigmaAldrich
# FTase = molecular target: T4, FTase (Homo sapiens, UniProt P49354+P49356); experiment: FTase-mediated farnesylation of Dansyl-GCVLS peptide; type: biochemical
# T4 construct: purchased Abcam
# From the text: Panel A: Progress curve showing FTase-mediated farnesylation of Dansyl-GCVLS peptide. Panel B: Relative rates from reactions shown in Panel A.
# TrxR/Trx system = molecular target: T5, TrxR/Trx system (Homo sapiens, UniProt P10599); experiment: TrxR/Trx NADPH oxidation assay; type: biochemical
# T5 construct: purchased Sigma (Trx); American Diagnostica (bovine TrxR)
# T5 sequence (P10599 1-105): T1 sequence (P10599 1-105)
# From the text: (Note: error bars are small and may be obscured by the symbols). […] (Note: error bars were omitted but assays were run in quadruplicate with typical errors of 5-8% between individual replicates). […] Panel D: Initial velocity reaction rates corresponding to progress curves shown in Panel C. With time, Trx-mesna and Trx-GSH are converted back to apo-Trx by Trx reductase (see also, FIG. 69, Panel E).
# [5] = molecular target: T6, recombinant human farnesyltransferase (Homo sapiens, UniProt P49354+P49356); experiment: Farnesyltransferase Dansyl-GCVLS fluorescence assay; type: biochemical
# T6 construct: purchased Abcam
# Method: Tavocept-inhibited human farnesyltransferase-mediated transfer of farnesylpyrophosphate to the cysteine residue in a danyslated peptide substrate of sequence glycine-cysteine-valine-leucine-serine (designated—Dansyl-GCVLS) in vitro. See, FIG. 79. The assay reactions contained 25 nM recombinant human farnesyltransferase (Abcam), 10 μM farnesylpyrophosphate (SigmaAldrich), 3 μM Dansyl-GCVLS (NeoBioScience) in Tris buffer (50 mM, pH 7.5) containing 5 mM MgCl2, 10 μM ZnCl2, and 0.2% octyl-β-D-glucopyranoside. Total assay volumes were 50 μL and the reactions were initiated by the addition of FTase (5 μL of 250 nM stock was added to 45 μL of assay components listed above). The excitation wavelength was 340 nm (a 340 nm filter with 25 nm bandpass) and the emission wavelength was […] (505 nm filter with 20 nm bandpass) and the assay temperature was 25° C. Progress curves of the transfer of the farnesylpyrophosphate to the Dansyl-GCVLS substrate are shown in FIG. 79, Panel A and relative rates of the progress curve were determined and are shown in FIG. 79, Panel B.
# [6] = system: Stage IV primary adenocarcinoma of the lung; experiment: Tavocept Phase III Clinical Trial (interim analysis); type: in vivo, human
# From the text: In the Tavocept Phase III Clinical Trial pre-specification was made through stratification factors including sex (i.e., male versus female) and taxane treatment (i.e., paclitaxel versus docetaxel). Eligible patients had not received prior drug treatment for their cancer, and inclusion in the trial was also allowed for patients who had relapsed following surgery for earlier stage disease as well as patients with central nervous system metastasis. A total of 540 patients were enrolled on the trial.
# The primary endpoint of this study was overall survival (OS); defined as the time period from the date of patient randomization to the date of death due to any cause.
# Patient eligibility was determined by compliance with protocol-specified inclusion and exclusion criteria.
# All patients received standard combination chemotherapy (taxane agent plus cisplatin) and either Tavocept or placebo.
# Treatment was administered every 3 weeks for a maximum of 6 cycles (one treatment cycle=21 days).
# The primary endpoint for analysis was the duration of overall survival, defined as the time from the date of randomization to the date of death due to any cause. The number of mortality events used for the final analysis depended upon the number of patients enrolled into the study (provided the sample size was adjusted at the interim analysis). For the primary analysis, the expected number of total mortality events was approximately 416 mortality events for a sample size of 575 patients.
# The one-sided log-rank test was performed in order to allow the application of the adaptive methodology. Details of this 2-stage adaptive design are described below. Kaplan-Meier survival curves (including identification of censored observations) was presented by treatment group, as well as median survival times and their 95% confidence intervals.
# The following specific endpoints were evaluated with pre-specified analyses in order to evaluate for potential clinically and statistically significant differences between Tavocept- and placebo-treated patients.
# The incidence of cisplatin renal toxicity and anemia, and the impact of emesis on daily life were analyzed using the Cochran-Mantel-Haenszel (CMH) tests for proportions. The CMH test was applied in the comparison between Tavocept and placebo where adjustment for prognostic factors is clinically important (e.g., adjusting for baseline characteristics). To control for Type I error due to multiple comparisons of safety data, a nominal, 2-sided p-value of less than 0.0125 was used for each comparison of renal toxicity, anemia, and emesis.
# [7] = molecular target: T7, Mesenchymal Epithelial Transition (MET) Factor Kinase (Homo sapiens, UniProt P08581); experiment: MET kinase activity (summary Table 27); type: biochemical
# T7 construct: the kinase domain of MET (residues 956-end) was used in these experiments; GST (N); purchased SignalChem M52-18G-10; host or cells: Sf9
# T7 sequence (P08581 956-1390 limits assumed): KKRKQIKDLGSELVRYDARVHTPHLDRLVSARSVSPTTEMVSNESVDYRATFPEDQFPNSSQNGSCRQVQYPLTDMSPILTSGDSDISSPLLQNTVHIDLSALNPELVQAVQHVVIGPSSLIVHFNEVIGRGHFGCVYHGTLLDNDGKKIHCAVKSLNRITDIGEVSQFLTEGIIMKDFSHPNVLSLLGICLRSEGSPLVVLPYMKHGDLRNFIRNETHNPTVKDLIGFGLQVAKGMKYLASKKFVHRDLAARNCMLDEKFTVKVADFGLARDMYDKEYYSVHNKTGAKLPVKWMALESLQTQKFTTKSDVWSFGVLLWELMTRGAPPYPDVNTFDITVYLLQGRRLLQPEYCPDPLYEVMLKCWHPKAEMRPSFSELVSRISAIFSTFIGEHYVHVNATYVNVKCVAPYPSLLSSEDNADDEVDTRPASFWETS
# human peroxiredoxin 4 (PRX4), sequence (Q13162 79-271 limits assumed): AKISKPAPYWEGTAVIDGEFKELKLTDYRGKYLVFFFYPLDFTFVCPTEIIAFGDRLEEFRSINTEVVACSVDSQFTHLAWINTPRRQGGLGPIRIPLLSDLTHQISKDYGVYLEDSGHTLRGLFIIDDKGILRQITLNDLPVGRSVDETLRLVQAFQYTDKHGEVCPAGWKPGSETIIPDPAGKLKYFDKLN
# T3 sequence (Q06830 whole entry): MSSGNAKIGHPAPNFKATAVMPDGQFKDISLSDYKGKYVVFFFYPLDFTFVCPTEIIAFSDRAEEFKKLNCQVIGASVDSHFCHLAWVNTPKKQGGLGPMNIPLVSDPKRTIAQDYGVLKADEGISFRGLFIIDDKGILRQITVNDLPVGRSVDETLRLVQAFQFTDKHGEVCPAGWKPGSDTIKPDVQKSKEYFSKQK
# T6 sequence (P49356 whole entry, one chain of several): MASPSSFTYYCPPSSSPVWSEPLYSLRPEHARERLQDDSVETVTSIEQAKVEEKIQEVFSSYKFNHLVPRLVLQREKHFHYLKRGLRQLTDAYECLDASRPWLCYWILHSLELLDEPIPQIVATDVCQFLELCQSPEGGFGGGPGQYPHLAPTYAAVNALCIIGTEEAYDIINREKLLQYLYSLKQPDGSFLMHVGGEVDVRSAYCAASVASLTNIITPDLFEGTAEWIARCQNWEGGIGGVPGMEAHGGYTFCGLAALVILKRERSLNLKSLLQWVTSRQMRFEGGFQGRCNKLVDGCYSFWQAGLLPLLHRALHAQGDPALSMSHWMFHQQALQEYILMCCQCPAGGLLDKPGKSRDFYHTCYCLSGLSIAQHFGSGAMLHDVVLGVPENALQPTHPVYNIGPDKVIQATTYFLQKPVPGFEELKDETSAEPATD
# T4 sequence (P49356 whole entry, one chain of several): as above
# T2 sequence (Q9UM73 1058-1620 limits assumed): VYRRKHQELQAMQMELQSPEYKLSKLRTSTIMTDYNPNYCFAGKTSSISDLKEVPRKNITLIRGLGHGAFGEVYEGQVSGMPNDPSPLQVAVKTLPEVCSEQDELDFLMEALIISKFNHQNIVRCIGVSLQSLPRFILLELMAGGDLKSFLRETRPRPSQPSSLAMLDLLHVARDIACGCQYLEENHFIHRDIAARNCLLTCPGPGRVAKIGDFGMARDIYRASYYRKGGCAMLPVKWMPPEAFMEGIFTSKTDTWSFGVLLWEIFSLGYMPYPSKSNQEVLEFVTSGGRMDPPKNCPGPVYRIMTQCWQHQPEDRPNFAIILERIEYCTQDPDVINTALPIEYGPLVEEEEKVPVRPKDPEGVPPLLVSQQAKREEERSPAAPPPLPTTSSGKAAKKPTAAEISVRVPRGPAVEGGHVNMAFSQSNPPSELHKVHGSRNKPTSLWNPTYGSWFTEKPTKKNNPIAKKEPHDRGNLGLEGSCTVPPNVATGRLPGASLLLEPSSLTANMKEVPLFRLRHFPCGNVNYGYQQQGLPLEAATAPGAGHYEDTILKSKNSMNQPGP
smiles,measurement,setting,value
"O=S(=O)([O-])CCSSCCS(=O)(=O)[O-].[Na+].[Na+] [Tavocept, disodium 2,2′-dithio-bis-ethane sulfonate]",Prx 4 cysteine residues carrying Tavocept-derived mesna moiety,[1],Cys124; also recorded: cysteine 124 (and possibly cysteine 245)
same,Tavocept in plasma,[2]; 41 g/m^2 Tavocept,~14 mM
same,concentrations of Tavocept achieved in the clinic,[2]; as high as,≤ 18000 µM
same,pharmacologically achievable plasma levels,[2]; doses of 18.4 g/m^2 and higher,≥ 8 mM
same,Plasma concentrations achieved in clinical trials,[2]; in vivo,10000 µM
same,pharmacologically achievable concentrations,[2]; in vivo,6-10 mM
same,Cmax,"[2]; read-out: Cmax values in plasma, dose of 18.4 g/m^2",≥ 10000 µM and ~10000 µM
same,Cmax,"[2]; read-out: Cmax values in plasma, doses as high as 41 g/m^2, typical",~10000 µM
same,Cmax,"[2]; read-out: typical Cmax values, administered at 18 g/m^2",~10000 µM
same,Effect on TrxR/Trx mediated rate of NADPH oxidation during insulin reduction,[3],an effect on the TrxR/Trx mediated rate of NADPH oxidation
same,Cellular consequence of BNP7787-modification and/or modulation: ALK,[4],BNP7787 disrupts/blocks ATP binding site resulting in inhibition
same,Cellular consequence of BNP7787-modification and/or modulation: Prx,Peroxiredoxin (Prx),BNP7787 disrupts active site structure (Prx) resulting in impaired
same,effect on FTase activity,FTase,Inhibition of FTase activity
same,mode of action on Trx,TrxR/Trx system,alternative substrate inhibitor
same,NADPH oxidation by TrxR and Trx,TrxR/Trx system; increasing concentrations of test substance,increases
same,Inhibition of farnesylation,[5],inhibits farnesylation in a concentration-dependent manner
same,Median survival advantage versus placebo,[6]; Male & Female Non-Smokers receiving paclitaxel and cisplatin,12 months
same,Median survival advantage versus placebo,[6]; PS 1 ECOG Performance Status males and females receiving paclitaxel and cisplatin,4.0 months
same,Overall median survival advantage versus placebo,"[6]; all subjects, paclitaxel or docetaxel plus cisplatin",greater than 2 month
same,Protection against chemotherapy-induced kidney toxicity,[6]; compared to placebo,improvement in the relative creatine decrease from baseline in favor of Tavocept
same,Anemia,[6]; compared to placebo arm,reduced anemia
same,Kaplan Meier overall survival curve slope,"[6]; during administration of up to 6 cycles, relative to Placebo arm",flattening of the slope of the survival curve for the Tavocept arm
same,Median survival advantage versus placebo,[6]; female subjects greater than or equal to 65 years of age receiving paclitaxel and cisplatin,2.1 months
same,Survival advantage,"[6]; female subjects with CNS Metastases present, paclitaxel plus cisplatin",Survival advantage in favor of Tavocept
same,Median survival advantage versus placebo,[6]; male and female subjects greater than or equal to 65 years of age receiving paclitaxel and cisplatin,3.5 months
same,"Median period of additional survival after starting new chemotherapy, longer than placebo-treated patients","[6]; patients previously receiving Tavocept, paclitaxel and cisplatin",3.4 months
same,Median survival advantage versus placebo,[6]; subjects greater than or equal to 65 years of age,3 months
same,Cellular consequence of BNP7787-modification and/or modulation: MET,[7],Modification of non-active site cysteine(s) resulting in enzyme
